# PubChem BioAssay AID248 (DTP/NCI, 2004)
# Values joined by “and” are separate entries in the source; they are usually repeats but may differ in a detail not shown here. Equal entries are not always repeated. Inconclusive results and toxic doses are left out.
# Tested on: L1210 leukemia ip in BDF1 mice, survival T/C
# Assay: NCI In Vivo Anticancer Drug Screen. Data for tumor model L1210 Leukemia (intraperitoneal) in B6D2F1 (BDF1) mice
# Conditions: endpoint: mean survival time, higher = longer survival
# In short: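 Transplanted-tumor mice were given test agent; controls received vehicle only. Survival readings from the two groups were divided (treated over control).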
# [1] = dose: 100.0 mg/kg/injection, schedule: Q01DX001 (ip), vehicle: carboxymethylcellulose (CMC)
# [2] = dose: 100.0 mg/kg/injection, schedule: Q04DX002 (ip), vehicle: carboxymethylcellulose (CMC)
# [3] = dose: 100.0 mg/kg/injection, schedule: Q04DX003 (ip), vehicle: carboxymethylcellulose (CMC)
# [4] = dose: 200.0 mg/kg/injection, schedule: Q01DX001 (ip), vehicle: carboxymethylcellulose (CMC)
# [5] = dose: 200.0 mg/kg/injection, schedule: Q04DX002 (ip), vehicle: carboxymethylcellulose (CMC)
# [6] = dose: 200.0 mg/kg/injection, schedule: Q04DX003 (ip), vehicle: carboxymethylcellulose (CMC)
# [7] = dose: 400.0 mg/kg/injection, schedule: Q04DX002 (ip), vehicle: carboxymethylcellulose (CMC)
# [8] = dose: 100.0 mg/kg/injection, schedule: Q04DX003 (ip), vehicle: saline with Tween-80
# [9] = dose: 200.0 mg/kg/injection, schedule: Q04DX003 (ip), vehicle: saline with Tween-80
# [10] = dose: 400.0 mg/kg/injection, schedule: Q04DX003 (ip), vehicle: saline with Tween-80
# [11] = dose: 100.0 mg/kg/injection, schedule: Q01DX009 (ip), vehicle: Klucel (hydroxypropylcellulose) (HPC)
# [12] = dose: 200.0 mg/kg/injection, schedule: Q01DX009 (ip), vehicle: Klucel (hydroxypropylcellulose) (HPC)
# [13] = dose: 400.0 mg/kg/injection, schedule: Q01DX009 (ip), vehicle: Klucel (hydroxypropylcellulose) (HPC)
# [14] = dose: 100.0 mg/kg/injection, schedule: Q04DX002 (ip), vehicle: Klucel (hydroxypropylcellulose) (HPC)
# [15] = dose: 200.0 mg/kg/injection, schedule: Q04DX002 (ip), vehicle: Klucel (hydroxypropylcellulose) (HPC)
# [16] = dose: 400.0 mg/kg/injection, schedule: Q04DX002 (ip), vehicle: Klucel (hydroxypropylcellulose) (HPC)
# [17] = dose: 50.0 mg/kg/injection, schedule: Q01DX001 (ip), vehicle: carboxymethylcellulose (CMC)
# [18] = dose: 100.0 mg/kg/injection, schedule: Q01DX001 (ip), vehicle: other
# [19] = dose: 200.0 mg/kg/injection, schedule: Q01DX001 (ip), vehicle: other
# [20] = dose: 100.0 mg/kg/injection, schedule: Q01DX001 (ip), vehicle: saline
# [21] = dose: 200.0 mg/kg/injection, schedule: Q01DX001 (ip), vehicle: saline
# [22] = dose: 100.0 mg/kg/injection, schedule: Q01DX009 (ip), vehicle: saline with Tween-80
# [23] = dose: 200.0 mg/kg/injection, schedule: Q01DX009 (ip), vehicle: saline with Tween-80
# [24] = dose: 400.0 mg/kg/injection, schedule: Q01DX009 (ip), vehicle: saline with Tween-80
# [25] = dose: 100.0 mg/kg/injection, schedule: Q01DX009 (ip), vehicle: saline
# [26] = dose: 200.0 mg/kg/injection, schedule: Q01DX009 (ip), vehicle: saline
structure (smiles),measurement,setting,value
COc1cc2cc3c4cc(OC)c(OC)cc4cc[n+]3c(/C=C/c3ccc(Cl)cc3)c2cc1OC,T/C,[1],93 % of control and 99 % of control
same,T/C,[2],102 % of control and 103 % of control
same,T/C,[3],100 % of control and 103 % of control
same,T/C,[4],99 % of control and 114 % of control
same,T/C,[5],94 % of control and 105 % of control
same,T/C,[6],95 % of control and 117 % of control
same,T/C,"dose: 400.0 mg/kg/injection, schedule: Q01DX001 (ip), vehicle: carboxymethylcellulose (CMC)",94 % of control and 111 % of control
same,T/C,[7],102 % of control and 113 % of control
same,T/C,"dose: 400.0 mg/kg/injection, schedule: Q04DX003 (ip), vehicle: carboxymethylcellulose (CMC)",100 % of control and 92 % of control
CCOC(=O)C1=C(C)NC(=O)NC1c1ccc(N=Cc2cc(Br)ccc2O)cc1 (stereo unspecified),T/C,[8],97 % of control
same,T/C,[9],97 % of control
same,T/C,[10],89 % of control
C1CSCCS1,T/C,[11],101 % of control
same,T/C,[12],117 % of control
same,T/C,[13],100 % of control
CC1CN1P(=O)(N1CC1C)N1CC1C (stereo unspecified),T/C,"dose: 13.3 mg/kg/injection, schedule: Q01DX009 (ip), vehicle: saline",124 % of control
same,T/C,"dose: 19.0 mg/kg/injection, schedule: Q01DX009 (ip), vehicle: saline",124 % of control
same,T/C,"dose: 66.0 mg/kg/injection, schedule: Q01DX001 (ip), vehicle: saline",163 % of control
same,T/C,"dose: 99.0 mg/kg/injection, schedule: Q01DX009 (ip), vehicle: saline",88 % of control
same,T/C,"dose: 150.0 mg/kg/injection, schedule: Q01DX001 (ip), vehicle: saline",159 % of control
Cc1cccc(NC(=O)C2CCCCC2C(=O)O)c1C (stereo unspecified),T/C,[14],100 % of control
same,T/C,[15],107 % of control
same,T/C,[16],92 % of control
CC[N+](CC)(CC)CC(=O)NCc1ccco1,T/C,[17],105 % of control
same,T/C,"dose: 50.0 mg/kg/injection, schedule: Q01DX009 (ip), vehicle: carboxymethylcellulose (CMC)",103 % of control
same,T/C,"dose: 50.0 mg/kg/injection, schedule: Q04DX003 (ip), vehicle: carboxymethylcellulose (CMC)",94 % of control
same,T/C,[1],99 % of control
same,T/C,"dose: 100.0 mg/kg/injection, schedule: Q01DX009 (ip), vehicle: carboxymethylcellulose (CMC)",103 % of control and 104 % of control
same,T/C,[2],95 % of control and 103 % of control
same,T/C,[3],102 % of control
same,T/C,[4],99 % of control
same,T/C,"dose: 200.0 mg/kg/injection, schedule: Q01DX009 (ip), vehicle: carboxymethylcellulose (CMC)",101 % of control and 90 % of control
same,T/C,[5],97 % of control and 92 % of control
same,T/C,[6],102 % of control
same,T/C,[7],90 % of control
CNCCCCOC,T/C,"dose: 100.0 mg/kg/injection, schedule: Q04DX002 (ip), vehicle: saline",117 % of control
same,T/C,"dose: 200.0 mg/kg/injection, schedule: Q04DX002 (ip), vehicle: saline",104 % of control
Cc1cc(Cl)ccc1OC(=O)NC1CCCCC1,T/C,[14],107 % of control
same,T/C,[15],96 % of control
same,T/C,[16],107 % of control
CC(C)NCC(C#N)C1CCCCC1 (stereo unspecified),T/C,"dose: 100.0 mg/kg/injection, schedule: Q01DX001 (ip), vehicle: saline with Tween-80",97 % of control
same,T/C,"dose: 200.0 mg/kg/injection, schedule: Q01DX001 (ip), vehicle: saline with Tween-80",93 % of control
same,T/C,"dose: 400.0 mg/kg/injection, schedule: Q01DX001 (ip), vehicle: saline with Tween-80",97 % of control
CCCN(CCC)C(=S)[S-].CCCN(CCC)C(=S)[S-].[Zn],T/C,"dose: 100.0 mg/kg/injection, schedule: Q04DX003 (ip), vehicle: saline sonified",100 % of control
same,T/C,"dose: 200.0 mg/kg/injection, schedule: Q04DX003 (ip), vehicle: saline sonified",91 % of control
same,T/C,"dose: 400.0 mg/kg/injection, schedule: Q04DX003 (ip), vehicle: saline sonified",86 % of control
CCOC(=O)Nc1cc(N)c(N)c(NC(c2ccccc2)c2ccccc2)n1,T/C,[18],102 % of control
same,T/C,[19],104 % of control
same,T/C,"dose: 400.0 mg/kg/injection, schedule: Q01DX001 (ip), vehicle: other",100 % of control
Cc1nc(N)[nH]c(=O)c1CCCNCc1ccco1,T/C,[20],100 % of control
same,T/C,[21],103 % of control
same,T/C,"dose: 400.0 mg/kg/injection, schedule: Q01DX001 (ip), vehicle: saline",99 % of control
CCC(=O)Nc1cccc(OC(C)=O)c1,T/C,[22],91 % of control
same,T/C,[23],90 % of control
same,T/C,[24],107 % of control
CCOC(=O)c1c2c(=O)n(C)c(=O)n(C)c2nc2c1c(=O)n(C)c(=O)n2C,T/C,"dose: 50.0 mg/kg/injection, schedule: Q01DX009 (ip), vehicle: Klucel (hydroxypropylcellulose) (HPC)",93 % of control
same,T/C,[11],93 % of control
same,T/C,[12],86 % of control
O=[N+]([O-])c1ccc(Sc2ccsc2)c([N+](=O)[O-])c1,T/C,[20],101 % of control
same,T/C,[21],98 % of control
NC(=O)Cn1cnc2c(=S)nc[nH]c21,T/C,"dose: 6.25 mg/kg/injection, schedule: Q01DX009 (ip), vehicle: saline with Tween-80",109 % of control
same,T/C,"dose: 12.5 mg/kg/injection, schedule: Q01DX009 (ip), vehicle: saline with Tween-80",104 % of control
same,T/C,"dose: 12.5 mg/kg/injection, schedule: Q04DX003 (ip), vehicle: saline with Tween-80",104 % of control
same,T/C,"dose: 25.0 mg/kg/injection, schedule: Q01DX009 (ip), vehicle: saline with Tween-80",101 % of control
same,T/C,"dose: 25.0 mg/kg/injection, schedule: Q04DX003 (ip), vehicle: saline with Tween-80",102 % of control
COc1ccc(N=C(c2ccccc2)c2ccc([N+](=O)[O-])cc2)cc1,T/C,[11],91 % of control
same,T/C,"dose: 100.0 mg/kg/injection, schedule: Q04DX003 (ip), vehicle: Klucel (hydroxypropylcellulose) (HPC)",93 % of control
same,T/C,[12],101 % of control
same,T/C,"dose: 200.0 mg/kg/injection, schedule: Q04DX003 (ip), vehicle: Klucel (hydroxypropylcellulose) (HPC)",98 % of control
same,T/C,[13],98 % of control
same,T/C,"dose: 400.0 mg/kg/injection, schedule: Q04DX003 (ip), vehicle: Klucel (hydroxypropylcellulose) (HPC)",98 % of control
CCCCCCCCC(CCCCCCCC)CCC1CCCCC1,T/C,"dose: 100.0 mg/kg/injection, schedule: Q01DX001 (ip), vehicle: saline + alcohol",95 % of control
same,T/C,"dose: 200.0 mg/kg/injection, schedule: Q01DX001 (ip), vehicle: saline + alcohol",108 % of control
same,T/C,"dose: 400.0 mg/kg/injection, schedule: Q01DX001 (ip), vehicle: saline + alcohol",100 % of control
O=C1NC(CCCl)C(=O)NC1CCCl (stereo unspecified),T/C,[17],107 % of control
same,T/C,[1],101 % of control
same,T/C,[4],91 % of control
CC(C)(C)C1CCC(S(C)(=O)=O)C(Cl)C1 (stereo unspecified),T/C,[25],110 % of control
same,T/C,"dose: 100.0 mg/kg/injection, schedule: Q04DX003 (ip), vehicle: saline",102 % of control
same,T/C,[26],106 % of control
same,T/C,"dose: 200.0 mg/kg/injection, schedule: Q04DX003 (ip), vehicle: saline",96 % of control
same,T/C,"dose: 400.0 mg/kg/injection, schedule: Q01DX009 (ip), vehicle: saline",102 % of control
same,T/C,"dose: 400.0 mg/kg/injection, schedule: Q04DX003 (ip), vehicle: saline",105 % of control
CC(C)(C)C1CCC(Cl)C(O)C1 (stereo unspecified),T/C,[25],104 % of control
same,T/C,[26],100 % of control
CCCCCCN(CCCCCC)C(C)=O,T/C,"dose: 50.0 mg/kg/injection, schedule: Q04DX003 (ip), vehicle: other",103 % of control
same,T/C,[18],96 % of control
same,T/C,"dose: 100.0 mg/kg/injection, schedule: Q04DX003 (ip), vehicle: other",98 % of control
same,T/C,[19],96 % of control
same,T/C,"dose: 200.0 mg/kg/injection, schedule: Q04DX003 (ip), vehicle: other",93 % of control
O=C(O)c1ccccc1/C=C/c1ccccc1,T/C,[22],96 % of control
same,T/C,[8],104 % of control
same,T/C,[23],100 % of control
same,T/C,[9],101 % of control
same,T/C,[24],96 % of control
same,T/C,[10],101 % of control
